This is an account of results in ChEMBL document CHEMBL3352029, “Ring fusion strategy for the synthesis of anthra[2,3-d]oxazole-2-thione-5,10-dione homologues as DNA topoisomerase inhibitors and as antitumor agents” (Eur J Med Chem, 2014).

One assay concerns HL-60(TB). The assay is described as follows: Cytotoxicity against human HL-60(TB) cells assessed as cell growth level at 10 uM after 48 hrs by sulforhodamine B assay. Format: functional. In general terms: Sulforhodamine B stains cellular protein and so reports cell mass.
Assay [1] is described as follows: Cytotoxicity against human NCI-ADR-RES cells assessed as cell growth level at 10 uM after 48 hrs by sulforhodamine B assay. In kind it is functional.
Another assay has as its system U-251. The assay is described as follows: Cytotoxicity against human U251 cells assessed as cell growth level at 10 uM after 48 hrs by sulforhodamine B assay. In kind it is functional.
Assay [2] in a line: Cytotoxicity against human UACC62 cells assessed as cell growth level at 10 uM after 48 hrs by sulforhodamine B assay. Format: functional, UACC-62.
In a further assay the test system is NCI-H522. Briefly: Cytotoxicity against human NCI-H522 cells assessed as cell growth level at 10 uM after 48 hrs by sulforhodamine B assay. In kind it is functional.
In the next assay the test system is IGROV-1. The assay is described as follows: Cytotoxicity against human IGROV1 cells assessed as cell growth level at 10 uM after 48 hrs by sulforhodamine B assay. Format: functional.
The subject of a further assay is A549. Briefly: Cytotoxicity against human A549/ATCC cells assessed as cell growth level at 10 uM after 48 hrs by sulforhodamine B assay. Format: functional.
The test system of the next assay is CCRF-CEM. The assay is described as follows: Cytotoxicity against human CCRF-CEM cells assessed as cell growth level at 10 uM after 48 hrs by sulforhodamine B assay. Format: functional.
The subject of another assay is MDA-MB-231. Briefly: Cytotoxicity against human MDA-MB-231 cells assessed as cell growth level at 10 uM after 48 hrs by sulforhodamine B assay. In kind it is functional.
Another assay has as its system RXF 393. Briefly: Cytotoxicity against human RXF393 cells assessed as cell growth level at 10 uM after 48 hrs by sulforhodamine B assay. In kind it is functional.
In another assay the test system is HCC 2998. Briefly: Cytotoxicity against human HCC2998 cells assessed as cell growth level at 10 uM after 48 hrs by sulforhodamine B assay. Format: functional.
Assay [3] can be described thus: Cytotoxicity against human Hs 578T cells assessed as cell growth level at 10 uM after 48 hrs by sulforhodamine B assay. In kind it is functional.
The next assay has as its system Malme-3M. Briefly: Cytotoxicity against human MALME-3M cells assessed as cell growth level at 10 uM after 48 hrs by sulforhodamine B assay. In kind it is functional.
The target of assay [4] is T1, DNA topoisomerase 1 (Homo sapiens) (UniProt P11387).
T1 sequence (whole entry): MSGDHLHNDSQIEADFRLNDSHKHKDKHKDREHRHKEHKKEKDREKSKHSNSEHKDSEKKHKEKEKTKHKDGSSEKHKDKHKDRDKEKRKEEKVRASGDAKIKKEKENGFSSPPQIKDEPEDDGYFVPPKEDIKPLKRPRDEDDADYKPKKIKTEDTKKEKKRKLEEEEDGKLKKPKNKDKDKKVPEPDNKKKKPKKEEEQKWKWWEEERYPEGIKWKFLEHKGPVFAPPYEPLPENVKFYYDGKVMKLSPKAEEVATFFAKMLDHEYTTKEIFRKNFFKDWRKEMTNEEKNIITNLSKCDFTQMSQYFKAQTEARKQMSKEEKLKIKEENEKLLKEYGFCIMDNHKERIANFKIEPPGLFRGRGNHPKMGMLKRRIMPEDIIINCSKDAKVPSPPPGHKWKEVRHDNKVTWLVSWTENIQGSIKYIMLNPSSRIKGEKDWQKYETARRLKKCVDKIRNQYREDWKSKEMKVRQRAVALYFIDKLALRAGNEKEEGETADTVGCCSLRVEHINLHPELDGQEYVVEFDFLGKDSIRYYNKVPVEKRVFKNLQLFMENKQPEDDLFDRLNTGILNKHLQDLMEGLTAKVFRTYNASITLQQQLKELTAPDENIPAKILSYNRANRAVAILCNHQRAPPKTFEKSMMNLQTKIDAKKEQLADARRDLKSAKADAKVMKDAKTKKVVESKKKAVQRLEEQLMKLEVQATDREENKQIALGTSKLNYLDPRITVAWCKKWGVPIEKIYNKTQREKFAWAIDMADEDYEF
Briefly: Inhibition of human recombinant DNA topoisomerase 1 assessed as reduction in relaxation of supercoiled pHOT DNA at 6.25 to 25 uM incubated for 45 mins by ethidium bromide staining based gel electrophoresis.

In assay [5] the target is T1, DNA topoisomerase 1 (Homo sapiens). The assay is described as follows: Inhibition of human recombinant DNA topoisomerase 1 assessed as reduction in relaxation of supercoiled pHOT DNA at 25 to 50 uM incubated for 45 mins by ethidium bromide staining based gel electrophoresis.

Activity calls are given as the source filed them. No cut-off for these calls is given here.

Take `CCSc1nc2cc3c(cc2o1)C(=O)c1ccccc1C3=O`: the Activity in the assay with HL-60(TB) was determined as 96.05%; in assay [1] it was 95.82%; in the assay on U-251, 94%; in [2] it was 89.01%; in the assay with NCI-H522, 80.08%; in the assay with IGROV-1, 79.05%. Besides, the Activity came to 96.49% with A549; 90.48% with CCRF-CEM; 90.66% in the assay with MDA-MB-231; 101% with RXF 393; 101.65% in the assay with HCC 2998; 81.15% in assay [3]. The Activity in the assay with Malme-3M is 91.75%.

For the molecule `O=C1c2ccccc2C(=O)c2cc3oc(SCc4ccc(F)cc4)nc3cc21`, the Activity is 95.74% with HL-60(TB); 91.27% in [1]; 96.4% with U-251; 89.94% in [2]; 80.08% in the assay with NCI-H522; 87.04% with IGROV-1. For the same molecule, the Activity in the assay on A549 is on record as 83.66%; in the assay on CCRF-CEM, 86.28%; in the assay on MDA-MB-231, 103.32%; in the assay on RXF 393, 90.29%; in the assay on HCC 2998 it was 108.69%; in [3], 95.47%. In addition, the Activity in the assay with Malme-3M was 89.8%.

For `CN(C)CCCSc1nc2cc3c(cc2o1)C(=O)c1ccccc1C3=O`, the Activity worked out at 75.05% in the assay on HL-60(TB); 90.68% in [1]; 87.74% in the assay on U-251; 86% in assay [2]; 70.64% in the assay with NCI-H522; 71.71% with IGROV-1. Besides, the Activity with A549 stood at 54.13%; in the assay on CCRF-CEM, 55.33%; with MDA-MB-231, 71.49%; with RXF 393, 83.05%; in the assay with HCC 2998, 100.1%; in [3], 91.54%. Also, in the assay on Malme-3M, the Activity was 101.35%. Moreover, the inhibition entry in assay [4] was “Dose-dependent effect”. Also, the inhibition result in assay [5] is “Active”.
